Here are results for 42 compounds from publication PMC11249646, “Small-Molecule Disruptors of the Interaction between Calcium- and Integrin-Binding Protein 1 and Integrin αIIbβ3 as Novel Antiplatelet Agents” (ACS Pharmacology & Translational Science, 2024).

Where two headings read alike, the source gives them in different places.

The target of this test is T1, CIB1 and αIIb interaction (CIB1-GST : F-αIIb peptide) (Homo sapiens, UniProt Q99828).
T1 construct: made in house; host or cells: BL-21 plus RIL cells (E. coli)
T1 sequence (Q99828 1-191): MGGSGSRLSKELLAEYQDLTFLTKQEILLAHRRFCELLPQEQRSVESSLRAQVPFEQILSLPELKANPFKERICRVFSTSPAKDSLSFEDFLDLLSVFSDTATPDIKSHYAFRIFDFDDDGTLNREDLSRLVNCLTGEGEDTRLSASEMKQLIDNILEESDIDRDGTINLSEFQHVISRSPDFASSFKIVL
The experiment in a line: FP assay, 1536-well qHTS format (primary and confirmatory screen). Conditions: for Efficacy (%): negative = inhibition; for Curve Class: negative sign = inhibitory curve; for IC50: read-out: IC50. It is filed as binding.

The mark [1] stands for this setting: qHTS primary screen hits, Table S2.
[2] abbreviates: qHTS primary screen hits, Table S2, several classes where COUNT > 1.
Setting [3] is: qHTS primary screen of LOPAC/NPACT libraries.

The IC50 is the concentration needed to halve the response being measured. Consider `O=C(O)C(F)(F)F.O=C(c1ccc2c(c1)ncn2-c1ccc(C(F)(F)F)cc1)N1CCCCC1` [NCGC00262230-01], for which, under setting [1], the “Efficacy (%)” value is recorded as -43%, the “Curve Class” value is on record as -2.2 and the IC50 was 44.7 µM.
On to `O=C(Nc1nc(-c2ccccc2)cs1)c1ccncc1NS(=O)(=O)c1ccc(Cl)cc1.O=C(O)C(F)(F)F` [NCGC00344892-01], for which, under setting [1], the “Efficacy (%)” value is given as -48% and the IC50 was 53.2 µM.
Take `COc1ccc(C2CC(=O)Nc3nc(N4CCCCC4)sc32)c(OC)c1.O=C(O)C(F)(F)F` (stereo not shown) [NCGC00488246-02]: under setting [1], the “Efficacy (%)” value is listed as -89% and the 50% inhibitory concentration (IC50) amounted to 56.2 µM. In addition, the “Curve Class” value under setting [2] was -2.3.
Take `COc1cc(O)c2c(c1)/C=C/C[C@H](O)[C@H](O)C(=O)/C=C\C[C@H](C)OC2=O` [NCGC00186421-07]: under setting [3], the “Efficacy (%)” value is -26%, the “Curve Class” value was -2.4 and the IC50 stood at 25.1 µM.
Consider `Cc1cc(C)nc(NC(=S)N2CCN(c3cccc4ccncc34)CC2)c1.O=C(O)C(F)(F)F` [NCGC00244146-01], for which, under setting [1], the “Efficacy (%)” value was -30%, the “Curve Class” value is listed as -2.4 and the IC50 came out at 79.4 µM.
Turning to `Cc1ccc(S(=O)(=O)Nc2cnccc2C(=O)Nc2nc(C(=O)O)cs2)cc1.O=C(O)C(F)(F)F` [NCGC00343903-01], under setting [1], the “Efficacy (%)” value was -36% and the concentration for half-maximal inhibition (IC50) was 50.1 µM. The “Curve Class” value under setting [2] is listed as -2.4.
Regarding `COc1ccc(CNC(=O)c2ccc3c(c2)NC(=O)c2ccccc2S3)cc1` [NCGC00241665-01], under setting [1], the “Efficacy (%)” value was -27%, the “Curve Class” value is on record as -2.4 and the IC50 was determined as 56.2 µM.
Take `C=CC/C=C\C/C=C\CCCCCCCc1cccc(O)c1C(=O)O` [NCGC00169660-02]: under setting [3], the “Efficacy (%)” value is reported as -27%, the “Curve Class” value is -1.4 and the IC50 was 25.1 µM.
Take `O=C(O)C(F)(F)F.O=C(O)c1ccc(O)c2ncc(N3CCN(Cc4ccccc4)CC3)cc12` [NCGC00241045-04]: under setting [1], the “Efficacy (%)” value is listed as -24% and the IC50 was 56.2 µM. Moreover, under setting [2], the “Curve Class” value was -2.4.
Take `Oc1cc(O)cc(/C=C/c2ccc(O)c(O)c2)c1` [NCGC00094226-07]: under setting [3], the “Curve Class” value is -1.2 and the IC50 stood at 3.2 µM.
As for `CC(C)COc1ccc(-c2ccc(=O)n(CC(=O)NCCc3ccccc3)n2)cc1.O=C(O)C(F)(F)F` [NCGC00262348-01], under setting [1], the “Efficacy (%)” value was -38%, the “Curve Class” value was -2.4 and the IC50 is 56.2 µM.
Regarding `O=Cc1ccc(O)c(O)c1O` [NCGC00262933-01], under setting [1], the “Efficacy (%)” value is -62% and the half-inhibitory concentration (IC50) amounted to 56.2 µM. For the same compound, under setting [2], the “Curve Class” value is listed as -2.4.
As for `COC(=O)C1C(O)CCC2CN3CCc4c([nH]c5ccccc45)C3CC21` (stereo not shown) [NCGC00015878-08], under setting [3], the “Efficacy (%)” value was -68% and the “Curve Class” value is given as -2.2.
For the compound `CC(C)c1cc(F)cc2c1C[C@](CCN(C)CCCc1nc3ccccc3[nH]1)(OC(=O)C1CC1)CC2` [NCGC00162214-02], under setting [3], the “Efficacy (%)” value was -30%, the “Curve Class” value is listed as -2.2 and the half-inhibitory concentration (IC50) was 56.2 µM.
Taken in the same sequence, the figures for `CCOc1ccc(Cc2nc(-c3c(C)nc4ccccn34)cs2)cc1` [NCGC00485083-01] were -29%, -2.4 and 44.7 µM.
With `COC1=C(OC)C(=O)C(CCCCCCCCCCO)=C(C)C1=O` [NCGC00160514-02], under setting [1], the “Efficacy (%)” value was -26% and the IC50 is 50.1 µM. Under setting [2], the “Curve Class” value is on record as -2.4.
For `O=C(Nc1ccc(S(=O)(=O)N2CCOCC2)cc1)c1ccc(N2CCc3ccccc3C2)cc1` [NCGC00348032-01], under setting [1], the “Efficacy (%)” value is on record as -34% and the IC50 worked out at 50.1 µM. Also, the “Curve Class” value under setting [2] is listed as -2.4.
Taken in the same sequence, the figures for `Oc1ccc(Cl)c2cccnc12` [NCGC00095303-04] were -37%, 56.2 µM and -2.4.
As for `Cl.Cl.Nc1ccc(/N=N/c2ccccc2)c(N)n1` [NCGC00018130-09], under setting [1], the “Efficacy (%)” value is recorded as -22%, the “Curve Class” value was -2.4 and the half-inhibitory concentration (IC50) turned out to be 79.4 µM.
As to `Cc1cc2occ(CN(C)CCN(C)Cc3cn(-c4cccc(C(F)(F)F)c4)c4ccccc34)c(=O)c2cc1C.Cl` [NCGC00386701-02], under setting [3], the “Efficacy (%)” value was -31%, the “Curve Class” value was -2.4 and the IC50 was 79.4 µM.
For the compound `O=C([C@@H]1CCCN(c2ccc3[nH]c(C4(n5cc(Cl)cn5)CC4)nc3n2)C1)N1CCCC1` [NCGC00485074-01], under setting [3], the “Efficacy (%)” value is -26%, the “Curve Class” value was -2.4 and the half-inhibitory concentration (IC50) worked out at 70.8 µM.
Consider `CNS(=O)(=O)c1ccc(Cc2c(-c3cccc(-c4ccccc4)c3)nn(-c3nc(C(=O)O)cs3)c2O)cc1.O=C(O)C(F)(F)F` [NCGC00356637-01], for which, under setting [1], the “Efficacy (%)” value is -55% and the IC50 amounted to 79.4 µM. Besides, the “Curve Class” value under setting [2] is listed as -3.
Taken in the same sequence, the figures for `CC[C@]1(O)CC[C@H]2[C@@H]3CCC4=CCCC[C@@H]4[C@H]3CC[C@@]21C` [NCGC00167514-02] were -100%, 31.6 µM and -1.1.
Take `O=C1NCc2c1c1c3ccccc3[nH]c1c1[nH]c3ccccc3c21` [NCGC00261167-01]: under setting [3], the “Efficacy (%)” value was -24%, the “Curve Class” value is -1.4 and the IC50 was 1.4 µM.
As to `NC[C@H](O)c1ccc(O)c(O)c1` [NCGC00159406-07], under setting [1], the “Efficacy (%)” value was -18% and the half-inhibitory concentration (IC50) was determined as 21.3 µM.
In the case of `O=C1NC(=O)/C(=C/c2ccc3nccnc3c2)S1` [NCGC00261632-01], under setting [3], the “Efficacy (%)” value is listed as -20%, the “Curve Class” value is -1.2 and the IC50 came to 7.9 µM.
Take `O=C(Nc1nc(-c2ccccc2)cs1)c1ccncc1NS(=O)(=O)c1ccc(F)cc1.O=C(O)C(F)(F)F` [NCGC00344931-02]: under setting [1], the “Efficacy (%)” value is listed as -38% and the IC50 is 53.2 µM.
`O=C(O)/C(=C/c1c(C(=O)O)[nH]c2cc(Cl)cc(Cl)c12)c1ccccc1` [NCGC00015639-04]: under setting [3], the “Efficacy (%)” value is listed as -29%, the “Curve Class” value was -2.2 and the IC50 is 56.2 µM.
For `COc1cc(NS(=O)(=O)c2cccc([N+](=O)[O-])c2)c2ncccc2c1` [NCGC00161706-01], under setting [1], the “Efficacy (%)” value is reported as -35% and the IC50 was determined as 56.2 µM. Besides, the “Curve Class” value under setting [2] is given as -2.4.
For the compound `CCCOc1ccccc1-c1nc(=O)c2nn[nH]c2[nH]1` [NCGC00016105-05], under setting [3], the “Efficacy (%)” value is -22%, the “Curve Class” value is on record as -1.4 and the IC50 is 14.1 µM.
Turning to `O=C(O)c1csc(-n2cc(Cc3ccc(CO)cc3)c(-c3cccc(-c4ccccc4)c3)n2)n1` [NCGC00371885-01], under setting [1], the “Efficacy (%)” value is on record as -35% and the IC50 came out at 44.7 µM. The “Curve Class” value under setting [2] was -2.4.
On to `CCCC(C(=O)OCCN(CC)CC)(c1ccccc1)c1ccccc1.Cl` [NCGC00015799-04], for which, under setting [3], the “Efficacy (%)” value was -14%, the “Curve Class” value was -2.4 and the IC50 is 56.2 µM.
For the compound `CC(=O)NC(c1ccco1)c1cc(Br)c2cccnc2c1O.O=C(O)C(F)(F)F` (stereo not shown) [NCGC00183684-06], under setting [1], the “Efficacy (%)” value was -40% and the IC50 amounted to 50.1 µM. In addition, the “Curve Class” value under setting [2] is -2.2.
Regarding `O=C(O)CCc1ccc(NCc2cccc3c2CCCN3CCOc2ccccc2)cc1F` [NCGC00370998-03], under setting [3], the “Efficacy (%)” value is on record as -32%, the “Curve Class” value is recorded as -2.4 and the concentration for half-maximal inhibition (IC50) is 44.7 µM.
For the compound `CC(=O)N[C@@H](Cc1c[nH]c2ccccc12)C(=O)OCc1cc(C(F)(F)F)cc(C(F)(F)F)c1` [NCGC00024832-04], under setting [3], the “Efficacy (%)” value was -16%, the “Curve Class” value was -1.2 and the IC50 was found to be 39.8 µM.
For `COC(=O)C1=C(C)NC(C)=C(C(=O)OC)C1c1ccccc1[N+](=O)[O-]` [NCGC00015748-13], under setting [3], the “Efficacy (%)” value is -24%, the “Curve Class” value is reported as -1.2 and the IC50 is 11.2 µM.
With `O=C(O)C(F)(F)F.O=C1CCCC2=C1C1(CCCCC1)N=C(Nc1nc3ccccc3o1)N2` [NCGC00186052-01], under setting [1], the “Efficacy (%)” value was -23% and the IC50 was found to be 56.2 µM. Besides, the “Curve Class” value under setting [2] is reported as -2.4.
Taken in the same sequence, the figures for `Cc1ccc(N[S+](=O)([O-])c2cc3c(cc2N[C@@H](C)CO)NC(=O)CC3)cc1N[C@@H](C)CO` [NCGC00189369-01] were -29%, 70.8 µM and -2.4.
For `OCCCc1ccccc1` [NCGC00165987-03], under setting [1], the “Efficacy (%)” value was -35% and the concentration for half-maximal inhibition (IC50) was 56.2 µM. In addition, under setting [2], the “Curve Class” value is recorded as -2.2.
Taken in the same sequence, the figures for `Cc1c(C)c2c(c(C)c1OC(=O)CCC(=O)OCCO)CC[C@@](C)(CCC[C@H](C)CCC[C@H](C)CCCC(C)C)O2` [NCGC00183103-01] were -36%, 79.4 µM and -3.
With `CN(N=O)c1ccc(O)c(O)c1` [NCGC00015706-04], under setting [1], the “Efficacy (%)” value is reported as -66% and the IC50 came out at 56.2 µM. Further, the “Curve Class” value under setting [2] is given as -2.4.
`CCCc1n[nH]c2c1C(c1cc(Cl)cc(Cl)c1O)C(C#N)=C(N)O2` (stereo not shown) [NCGC00402340-02]: under setting [3], the “Efficacy (%)” value is given as -29%, the “Curve Class” value is reported as -2.4 and the IC50 was determined as 44.7 µM.
